Assay results: patent publication US11447495B2, “Substituted benzo[f]imidazo[1,5-a][1,4]diazepines as GABA(a) receptor modulators” (priority 2016, dated 2022)

Legend:
[1] = test system: CD4+ T-cells isolated from ova s/c BALB/c mice spleen; experiment: Automated patch clamp of CD4+ T cells with 600 nM GABA; format: cell-based, mouse; details: increasing concentrations of compound, 3 seconds
Method: Direct interaction between compounds and CD4^+ T cells may be investigated by electrophysiology. Therefore, CD4^+ T cells may be isolated from the spleen of asthmatic mice and treated with compounds during an automated patch clamp experiment.
To determine the effect of compounds on lymphocytes, CD4^+ T cells from Ova S/C mice were isolated and their interaction with compounds was measured by automated patch clamp. Splenocytes from ova s/c BALB/c mice were prepared following BD Biosciences instructions for preparation of murine splenocytes and red blood cell lysed using BD Pharm Lyse™ lysing solution (BD Biosciences, San Jose, Calif.). Cells were maintained in suspension in RPMI 1640 medium with L-glutamine (Thermo Fisher Scientific Inc., Rockford, Ill.) supplemented with 10% (v/v) fetal bovine serum, 10 μM 2-mercaptoethanol and 1% penicillin/streptomycin in the presence or absence of 100 μg/mL ovalbumin. The cells were maintained in 5% CO2, 95% humidified air at 37° C. for 48 hours. The IonFlux plate layout consists of units of 12 wells: two wells contain intracellular solution (ICS containing […], 1 mM CaCl2, 1 mM MgCl2, 11 mM EGTA, 10 mM HEPES, pH 7.2 with CsOH), one contains cells diluted in extracellular solution (ECS containing 140 mM NaCl, 5 mM […] KCl, 2 mM CaCl2, 1 mM MgCl2, 5 mM D-glucose monohydrate, and 10 mM HEPES, pH 7.4 with NaOH), eight contain the compounds of interest diluted in ECS, and one well is for waste collection. Cells are captured from suspension by applying suction to microscopic channels in ensemble recording arrays. Once the array is fully occupied, the applied suction breaks the membranes of captured cells, which establishes whole cell voltage clamp. For compound applications, pressure is applied to the appropriate compound wells, which introduces the compound into the extracellular solution rapidly flowing over the cells. For recording GABAAR induced currents, cell arrays were voltage clamped at a hyperpolarizing holding potential of −50 mV. Prior to use on the automated patch clamp, cells were centrifuged at 380 g for 5 minutes and resuspended gently in ECS. This was repeated two more times before the cells were dispensed into the plate. GABA and muscimol were diluted to appropriate concentrations in ECS to appropriate concentrations before application and data recorded. […] The concentration-dependent current responses of CD4+ T-cells in the presence of 600 nM GABA and increasing concentration of compounds were carried out with an N of 16 and normalized to the current response of 600 nM GABA.

[2] = test system: inflammatory cells, eosinophils, CD4+ T cells in BALF; experiment: Inflammatory cell numbers in BALF by flow cytometry; format: in vivo, ova s/c BALB/c mice; details: 100 mg/kg twice daily for 5 days
Method: The change of the number of specific immune cells caused by compounds may be investigated in the bronchoalveolar lavage fluid (BALF) of Ova S/C mice. Therefore, a bronchoalveolar lavage may be carried out followed by the lysis of red blood cells. Incubation of cell-type specific antibodies with BALF may allow the quantification of leukocytes such as eosinophils and CD4^+ T-lymphocytes using flow cytometry.
Determination of anti-inflammatory properties of compounds were investigated in an allergen induced mouse model of asthma. At the day of analysis, bronchoalveolar lavage (BAL) was performed with 1 mL of Ca2+ and Mg2+ free PBS. Red blood cells (RBCs) were lysed using BD red blood cell lysis buffer (BD Pharmingen, San Jose, Calif.). BALF was split into four different tubes and non-specific binding to Fc receptors was blocked for 5 minutes using 6 μg/mL of 2.4G2 mouse BD Fc Block™ (BD Pharmingen, San Jose, Calif.). BALF cells were stained for 30 minutes at 4° C. in the dark with 100 μL BSA stain buffer (BD Pharmingen, San Jose, Calif.) containing the final concentrations of the following antibodies: anti-mouse CD45 APC (1:1000, 30-F11, Affymetrix eBiosciences, San Diego, Calif.), FITC rat anti-mouse CD4 (1:500, RM4-5, BD Pharmingen, San Jose, Calif.), PE Rat Anti-Mouse Siglec F (1:500, E50-2440, BD Pharmingen, San Jose, Calif.) and mouse CCR3 PE-conjugated antibody (1:40, 83101, R&D systems Inc, Minneapolis, Minn.). Flow cytometric studies were done using the BD FACS Calibur (BD Pharmingen, San Jose, Calif.) and data analyzed subsequently using Cell Quest pro software (BD Pharmingen, San Jose, Calif.). General gating for immune cells were followed. Total inflammatory cell count was obtained by running all samples on high (60 μL/min) for 180 seconds. The gated anti-mouse CD45 positive events in the fourth channel (FL4) were used to calculate the total inflammatory cell count as cells/mL. The frequencies of CCR3+/Siglec F were used for quantification of eosinophils and CD4+ for CD4+ T cell populations in their respective gates were multiplied by the total inflammatory cell count (cells/mL) to obtain the differential cell population. Statistical analysis: Data were analyzed using GraphPad Prism 4 (GraphPad Software, San Diego, Calif.) and expressed as mean±SEM. One-way analysis of variance (ANOVA) with Dunnet post hoc test or two-way ANOVA with Bonferroni post hoc test were performed for statistical difference for multiple groups. FIGS. 7A-7C show effects of compounds on inflammatory cells. Groups of 10 ova s/c BALB/c mice were administered compounds at 100 mg/kg twice daily for 5 days. BALF was harvested from each animal and used for (A) quantification of total inflammatory cells; (B) eosinophils; (C) CD4^+ T cells. Cells were stained with mouse CD45^+ APC antibody, and samples were analyzed with BD FACS Calibur on high flow rate (60 μl/minute) for 180 seconds. The gated positive events in the fourth channel (FL4) were used to calculate the total inflammatory cell count as cells/ml. Quantification of specific leukocyte population (B) eosinophils (C) CD4^+ T cell populations were stained with specific antibodies and detected by flow cytometry. Data represent mean±SEM from 10 mice in each group. *, **, and *** indicate p<0.05, p<0.01, and p<0.001 significance, respectively, compared to vehicle treated ova s/c BALB/c mice.

In the case of C[C@H]1N=C(c2ccccc2F)c2cc(Br)ccc2-n2cnc(C(=O)O)c21 [GL-II-93, (R)-8-bromo-6-(2-fluorophenyl)-4-methyl-4H-benzo[f]imidazo[1,5-a][1,4]diazepine-3-carboxylic acid], the “GABA-induced membrane current of CD4+ T-cells” value (shortened to “GABA-induced membrane current”) [1] is reported as “evoked a very pronounced GABA-induced transmembrane current”, the “numbers of CD4+ T cells” value [2] is reported as “did reduce the numbers of eosinophils and CD4^+ T cells” and the numbers of eosinophils [2] is reported as “did reduce the numbers of eosinophils”.
With CCOC(=O)c1ncn2c1[C@@H]1CCCN1C(=O)c1cc(O)ccc1-2 [RJ-02-50, ethyl (S)-7-hydroxy-9-oxo-11,12,13,13a-tetrahydro-9H-benzo[e]imidazo[5,1-c]pyrrolo[1,2-a][1,4]diazepine-1-carboxylate] the “GABA-induced membrane current” value [1] was “potentiated the GABA-induced membrane current more than SH-053-2F′F—R-CH3-Acid”, the “numbers of CD4+ T cells” value [2] was “did reduce the numbers of eosinophils and CD4^+ T cells” and the numbers of eosinophils [2] was “did reduce the numbers of eosinophils”.
O=C1c2cc(O)ccc2-n2cnc(-c3cnco3)c2[C@@H]2CCCN12 [RJ-03-30, (S)-7-hydroxy-1-(oxazol-5-yl)-11,12,13,13a-tetrahydro-9H-benzo[e]imidazo[5,1-c]pyrrolo[1,2-a][1,4]diazepin-9-one] was tested, and the “GABA-induced membrane current” value [1] was “evoked a very pronounced GABA-induced transmembrane current” and the “numbers of inflammatory cells in BALF” value [2] was “did not modulate the numbers of inflammatory cells”.
With C#Cc1ccc2c(c1)C(c1ccccc1F)=N[C@H](C)c1c(C(=O)O)ncn1-2 [SH-053-2′F-R-CH3-Acid, (R)-8-ethynyl-6-(2-fluorophenyl)-4-methyl-4H-benzo[f]imidazo[1,5-a][1,4]diazepine-3-carboxylic acid] the “GABA-induced membrane current” value [1] was “RJ-02-50 potentiated the GABA-induced membrane current more than SH-053-2F′F—R-CH3-Acid”, the “numbers of CD4+ T cells” value [2] was “but not CD4^+ T cells” and the numbers of eosinophils [2] was “reduced the numbers of eosinophils”.
